# Measurements published in ChEMBL document CHEMBL1201862, “PubChem BioAssay data set” (2004).
#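 These data come from cells grown in 96-well plates and exposed to compound for 48 hours at five concentrations. GI50 marks 50% less growth.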 Activity calls are given as the source filed them. No stated cut-off is given here; in the data, active = GI50 up to about 1.1 µM and inactive = higher.
# Legend:
# Assay in all cases: NCI tumour cell line growth inhibition, 48 h
# A549 = tested on: A549
# CAKI-1 = tested on: CAKI-1
# CCRF-CEM = tested on: CCRF-CEM
# Hs-578T = tested on: Hs-578T
# K562 = tested on: K562
# KM12 = tested on: KM12
# M14 = tested on: M14
# MOLT-4 = tested on: MOLT-4
# OVCAR-5 = tested on: OVCAR-5
# OVCAR-8 = tested on: OVCAR-8
# PC-3 = tested on: PC-3
# RXF 393 = tested on: RXF 393
# SF-268 = tested on: SF-268
# SK-MEL-2 = tested on: SK-MEL-2
# SK-MEL-5 = tested on: SK-MEL-5
# SK-OV-3 = tested on: SK-OV-3
# SNB-75 = tested on: SNB-75
# T47D = tested on: T47D
# U-251 = tested on: U-251
# UACC-62 = tested on: UACC-62
SMILES,GI50 (A549),GI50 (CAKI-1),GI50 (CCRF-CEM),GI50 (Hs-578T),GI50 (K562),GI50 (KM12),GI50 (M14),GI50 (MOLT-4),GI50 (OVCAR-5),GI50 (OVCAR-8),GI50 (PC-3),GI50 (RXF 393),GI50 (SF-268),GI50 (SK-MEL-2),GI50 (SK-MEL-5),GI50 (SK-OV-3),GI50 (SNB-75),GI50 (T47D),GI50 (U-251),GI50 (UACC-62)
CN(C)CCCN1c2ccc3ccccc3c2Sc2cccc(Cl)c21,5.81 µM (inactive),5.33 µM (inactive),1.52 µM (inactive),0.665 µM (active),1.73 µM (inactive),2.08 µM (inactive),1.89 µM (inactive),2.14 µM (inactive),5.13 µM (inactive),4.33 µM (inactive),3.01 µM (inactive),3.82 µM (inactive),5.69 µM (inactive),1.99 µM (inactive),3.83 µM (inactive),11.4 µM (inactive),3.6 µM (inactive),2.46 µM (inactive),2.18 µM (inactive),2 µM (inactive)
O=C(O)C/C(=C\c1ccccc1)C(=O)O,> 100 µM (inactive),> 100 µM (inactive),> 100 µM (inactive),> 100 µM (inactive),31.7 µM (inactive),> 100 µM (inactive),> 100 µM (inactive),> 100 µM (inactive),> 100 µM (inactive),> 100 µM (inactive),> 100 µM (inactive),> 100 µM (inactive),> 100 µM (inactive),> 100 µM (inactive),> 100 µM (inactive),> 100 µM (inactive),> 100 µM (inactive),> 100 µM (inactive),> 100 µM (inactive),> 100 µM (inactive)
COc1cc2c3cc1Oc1c(OC)c(OC)cc4c1C(=NCC4)Cc1ccc(cc1)Oc1cc(ccc1O)C[C@H]3N(C)CC2,37.5 µM (inactive),20.6 µM (inactive),30 µM (inactive),17.6 µM (inactive),12.7 µM (inactive),15 µM (inactive),16.3 µM (inactive),11.9 µM (inactive),45.6 µM (inactive),16 µM (inactive),13.2 µM (inactive),10 µM (inactive),22.6 µM (inactive),16.7 µM (inactive),12.2 µM (inactive),48.6 µM (inactive),14.1 µM (inactive),21 µM (inactive),17.4 µM (inactive),16.7 µM (inactive)
O=C(O)[C@H]1CCCN1CP(=O)(O)CN1CCC[C@@H]1C(=O)O,> 100 µM (inactive),> 100 µM (inactive),> 100 µM (inactive),> 100 µM (inactive),> 100 µM (inactive),> 100 µM (inactive),> 100 µM (inactive),> 100 µM (inactive),> 100 µM (inactive),> 100 µM (inactive),> 100 µM (inactive),> 100 µM (inactive),> 100 µM (inactive),> 100 µM (inactive),> 100 µM (inactive),> 100 µM (inactive),> 100 µM (inactive),> 100 µM (inactive),> 100 µM (inactive),> 100 µM (inactive)
CC(C)OC(=O)NNc1cccc(Cl)c1,> 100 µM (inactive),61.7 µM (inactive),> 100 µM (inactive),> 100 µM (inactive),47.3 µM (inactive),> 100 µM (inactive),> 100 µM (inactive),> 100 µM (inactive),> 100 µM (inactive),> 100 µM (inactive),> 100 µM (inactive),> 100 µM (inactive),> 100 µM (inactive),19.4 µM (inactive),> 100 µM (inactive),> 100 µM (inactive),> 100 µM (inactive),> 100 µM (inactive),> 100 µM (inactive),38.4 µM (inactive)
C#C[C@]1(O)CC[C@H]2[C@@H]3CCC4=C/C(=N\OCCN5CCCC5)CC[C@]4(C)[C@H]3CC[C@@]21C,15.7 µM (inactive),12.4 µM (inactive),14.6 µM (inactive),6.25 µM (inactive),5.12 µM (inactive),5.36 µM (inactive),9.82 µM (inactive),6.14 µM (inactive),19.2 µM (inactive),17.1 µM (inactive),6.28 µM (inactive),13.5 µM (inactive),13.5 µM (inactive),9.18 µM (inactive),3.67 µM (inactive),19.5 µM (inactive),10.8 µM (inactive),16.1 µM (inactive),17.3 µM (inactive),10.4 µM (inactive)
